Test results from article PMC7734590, “Identification of a Selective RelA Inhibitor Based on DSE-FRET Screening Methods” (International Journal of Molecular Sciences, 2020).
Structures can show the parent of a compound that is named as a salt. Where two headings read alike, the source gives them in different places.

Key:
RelA = RelA (Homo sapiens, UniProt Q04206); test: DSE-FRET RelA–DNA binding inhibition; format: biochemical; design: Kinetic assay RelA Inhibition % ΔRFU(60 min-0 min) / RelA HTS % Inhibition / RelA Retest % Inhibition Run1 / RelA Retest % Inhibition Run2 / RelA Retest % Inhibition Avg. / Kinetic assay RelA % Inhibition ΔRFU(60 min-0 min): dose or concentration left out as unconfirmed
RelA, sequence (Q04206 19-306 limits assumed): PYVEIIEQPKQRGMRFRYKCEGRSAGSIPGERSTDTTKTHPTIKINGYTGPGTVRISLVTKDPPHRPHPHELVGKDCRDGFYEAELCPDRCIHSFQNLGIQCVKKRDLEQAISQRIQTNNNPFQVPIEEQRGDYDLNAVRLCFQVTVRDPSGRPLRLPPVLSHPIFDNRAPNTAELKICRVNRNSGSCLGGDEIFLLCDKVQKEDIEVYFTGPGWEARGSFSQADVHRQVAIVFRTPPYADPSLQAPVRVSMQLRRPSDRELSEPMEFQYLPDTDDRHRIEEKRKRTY

p52 = biological target: T1, p52 (Homo sapiens, UniProt Q00653); test: DSE-FRET p52–DNA binding inhibition; format: biochemical; design: p52 Retest % Inhibition Run2 / p52 Retest % Inhibition Avg. / Kinetic assay p52 Inhibition % ΔRFU(60 min-0 min) / p52 HTS % Inhibition / p52 Retest % Inhibition Run1: dose or concentration left out as unconfirmed; settings: for p52 HTS % Inhibition: NPDepo hits
T1 sequence (Q00653 1-454 limits assumed): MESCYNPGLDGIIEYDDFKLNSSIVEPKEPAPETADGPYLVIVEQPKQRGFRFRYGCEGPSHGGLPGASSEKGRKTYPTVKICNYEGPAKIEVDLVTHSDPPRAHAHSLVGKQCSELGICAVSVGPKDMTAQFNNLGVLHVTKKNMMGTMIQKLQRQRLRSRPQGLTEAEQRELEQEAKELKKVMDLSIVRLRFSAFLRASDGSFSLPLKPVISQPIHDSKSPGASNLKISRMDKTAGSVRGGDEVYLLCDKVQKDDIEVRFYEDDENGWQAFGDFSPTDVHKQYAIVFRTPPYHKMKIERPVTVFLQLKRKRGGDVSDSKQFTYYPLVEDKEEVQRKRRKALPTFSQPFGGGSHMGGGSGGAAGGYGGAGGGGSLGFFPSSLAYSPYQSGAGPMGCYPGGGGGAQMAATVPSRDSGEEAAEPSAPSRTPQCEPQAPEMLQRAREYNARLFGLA

[1] = HTS, known drugs, 10 µM, read-out: RelA HTS % Inhibition @ 10 µM
[2] = kinetic assay, 60 min-0 min, 10 µM, read-out: Kinetic assay @ 10 µM RelA % Inhibition ΔRFU(60 min-0 min)
[3] = retest, Run1, 10 µM, read-out: RelA Retest % Inhibition @ 10 µM Run1
[4] = retest, Run2, 10 µM, read-out: RelA Retest % Inhibition @ 10 µM Run2
[5] = retest, average of Run1 and Run2, 10 µM, read-out: RelA Retest % Inhibition @ 10 µM Avg.
[6] = HTS, known drugs, 10 µM, read-out: p52 HTS % Inhibition @ 10 µM
[7] = kinetic assay, 60 min-0 min, 10 µM, read-out: Kinetic assay @ 10 µM p52 % Inhibition ΔRFU(60 min-0 min)
[8] = retest, Run1, 10 µM, read-out: p52 Retest % Inhibition @ 10 µM Run1
[9] = retest, Run2, 10 µM, read-out: p52 Retest % Inhibition @ 10 µM Run2
[10] = retest, average of Run1 and Run2, 10 µM, read-out: p52 Retest % Inhibition @ 10 µM Avg.
[11] = kinetic assay, ΔRFU 60 min-0 min
[12] = Retest average of Run1 and Run2

inhibition at 10 µM (RelA; [1]) [%]	inhibition at 10 µM (RelA; [3]) [%]	inhibition at 10 µM (RelA; [4]) [%]	inhibition at 10 µM (RelA; [5]) [%]	inhibition at 10 µM (p52; [6]) [%]	inhibition at 10 µM (p52; [8]) [%]	inhibition at 10 µM (p52; [9]) [%]	inhibition at 10 µM (p52; [10]) [%]	Compound	Kinetic assay RelA % Inhibition ΔRFU(60 min-0 min) (RelA; kinetic assay, 60 min-0 min) [%]	Kinetic assay p52 % Inhibition ΔRFU(60 min-0 min) (p52; kinetic assay, 60 min-0 min) [%]	also measured
–	–	–	–	–	–	–	–	O=C1Nc2ccc(I)cc2/C1=C/c1cc(Br)c(O)c(Br)c1 [GW 5074]	-17	-18	–
29.9	32.3	36.4	34.3	33.8	29.3	32.3	30.8	Cc1[nH]c(/C=C2\C(=O)Nc3ccccc32)c(C)c1CCC(=O)O [SU 6668]	–	–	inhibition at 10 µM (RelA; [2]): -15%; inhibition at 10 µM (p52; [7]): -12%
–	–	–	–	–	–	–	–	O=C(O)c1cc(O)c2c(c1)[C@@H]([C@H]1c3cc(C(=O)O)cc(O)c3C(=O)c3c(O[C@@H]4O[C@H](CO)[C@@H](O)[C@H](O)[C@H]4O)cccc31)c1cccc(O[C@@H]3O[C@H](CO)[C@@H](O)[C@H](O)[C@H]3O)c1C2=O [Sennoside B]	–	–	Hit Judgement of: RelA (RelA; 1 = judged hit after retest): 1; inhibition at 5 µg/mL (RelA; HTS, 5 µg/mL, NPDepo hits, read-out: RelA HTS % Inhibition @ 5 µg/mL): 87.4%; inhibition at 5 µg/mL (RelA; Retest Run1, 5 µg/mL, read-out: RelA Retest % Inhibition @ 5 µg/mL Run1): 74.5%; inhibition at 5 µg/mL (RelA; Retest Run2, 5 µg/mL, read-out: RelA Retest % Inhibition @ 5 µg/mL Run2): 85.1%; inhibition at 5 µg/mL (RelA; Retest average of Run1 and Run2, 5 µg/mL, read-out: RelA Retest % Inhibition @ 5 µg/mL Avg.): 79.8%; inhibition at 5 µg/mL (RelA; kinetic assay, 5 µg/mL, ΔRFU 60 min-0 min, read-out: Kinetic assay @ 5 µg/mL RelA Inhibition % ΔRFU(60 min-0 min)): 73%; Hit Judgement of: p52 (p52; 1 = judged hit after retest): 1
56.7	60.6	66.3	63.5	70.9	60.7	69.7	65.2	CCN(CC)CCCC(C)Nc1c2ccc(Cl)cc2nc2ccc(OC)cc12 (stereo not drawn) [QUINACRINE HYDROCHLORIDE]	-18	-16	–
242	226	246	236	241	207	231	219	CC(C)(CO)[C@@H](O)C(=O)NCCCO [DEXPANTHENOL]	–	–	inhibition at 10 µM (RelA; [2]): -4.64%; inhibition at 10 µM (p52; [7]): -1.23%
–	–	–	–	–	–	–	–	O=C1NC(=O)c2c1c1c3ccccc3[nH]c1c1[nH]c3ccccc3c21 [Arcyriaflavin A]	-3.51	-3.54	–
–	–	–	–	–	–	–	–	CCN1C(=O)C(=CC=C2Oc3ccccc3N2CCC(=O)O)N(C)C1=S	–	–	RelA HTS % Inhibition (RelA; HTS, NPDepo hits): 107.7%; Kinetic assay RelA Inhibition % ΔRFU(60 min-0 min) (RelA; [11]): -18%; p52 HTS % Inhibition (p52; HTS): 115.0%; Kinetic assay p52 Inhibition % ΔRFU(60 min-0 min) (p52; kinetic assay): -27%
–	–	–	–	–	–	–	–	O=c1c(=Cc2ccc(-c3ccccc3F)o2)sc2nc3sc4c(c3c(=O)n12)CCCC4	–	–	RelA HTS % Inhibition (RelA; HTS, NPDepo hits): 33.6%; RelA Retest % Inhibition Run1 (RelA; Retest Run1): 26.4%; RelA Retest % Inhibition Run2 (RelA; Retest Run2): 32.2%; RelA Retest % Inhibition Avg. (RelA; [12]): 29.3%; Kinetic assay RelA Inhibition % ΔRFU(60 min-0 min) (RelA; [11]): 0.774%; p52 HTS % Inhibition (p52; HTS): 20.7%; p52 Retest % Inhibition Run1 (p52; Retest Run1): 25.8%; p52 Retest % Inhibition Run2 (p52; Retest Run2): 30.7%; p52 Retest % Inhibition Avg. (p52; [12]): 28.2%; Kinetic assay p52 Inhibition % ΔRFU(60 min-0 min) (p52; kinetic assay): -0.236%
–	–	–	–	–	–	–	–	CC(=O)Oc1cccc2c1C(=O)c1c(OC(C)=O)cc(C(=O)O)cc1C2=O [DIACERIN]	3	2.21	–
–	–	–	–	–	–	–	–	COc1cccc2c1C(=O)c1c(O)c3c(c(O)c1C2=O)C[C@@](O)(C(=O)CO)C[C@@H]3O[C@H]1C[C@H](N)[C@H](O)[C@H](C)O1 [DOXORUBICIN]	-14	-16	–

Compound	inhibition at 10 µM (RelA; [1]) [%]	inhibition at 10 µM (RelA; [3]) [%]	inhibition at 10 µM (RelA; [4]) [%]	inhibition at 10 µM (RelA; [5]) [%]	inhibition at 10 µM (p52; [6]) [%]	inhibition at 10 µM (p52; [8]) [%]	inhibition at 10 µM (p52; [9]) [%]	inhibition at 10 µM (p52; [10]) [%]	Kinetic assay RelA % Inhibition ΔRFU(60 min-0 min) (RelA; kinetic assay, 60 min-0 min) [%]	Kinetic assay p52 % Inhibition ΔRFU(60 min-0 min) (p52; kinetic assay, 60 min-0 min) [%]	also measured
Cl[C@H]1[C@H](Cl)[C@@H](Cl)[C@@H](Cl)[C@H](Cl)[C@H]1Cl [LINDANE]	29.3	6.1	5.6	5.9	31.4	5.5	6.4	5.9	–	–	inhibition at 10 µM (RelA; [2]): -1.86%; inhibition at 10 µM (p52; [7]): -1.69%
